Reference: US11524966B1 (Valo Early Discovery, Inc., priority 2017, dated 2022)

biological target: T1, USP25 (USP25-His6, Boston Biochem E-546) (Homo sapiens, UniProt Q9UHP3); assay: Ubiquitin-Rhodamine 110 Assay for USP25 Activity, Example A-2; assay type: biochemical; details: Ubiquitin-Rhodamine 110 assay, format Example A-2; read-out: USP25 A-2 IC50 range
T1 construct: His6; purchased Boston Biochem E-546
T1 sequence (Q9UHP3 1-1055): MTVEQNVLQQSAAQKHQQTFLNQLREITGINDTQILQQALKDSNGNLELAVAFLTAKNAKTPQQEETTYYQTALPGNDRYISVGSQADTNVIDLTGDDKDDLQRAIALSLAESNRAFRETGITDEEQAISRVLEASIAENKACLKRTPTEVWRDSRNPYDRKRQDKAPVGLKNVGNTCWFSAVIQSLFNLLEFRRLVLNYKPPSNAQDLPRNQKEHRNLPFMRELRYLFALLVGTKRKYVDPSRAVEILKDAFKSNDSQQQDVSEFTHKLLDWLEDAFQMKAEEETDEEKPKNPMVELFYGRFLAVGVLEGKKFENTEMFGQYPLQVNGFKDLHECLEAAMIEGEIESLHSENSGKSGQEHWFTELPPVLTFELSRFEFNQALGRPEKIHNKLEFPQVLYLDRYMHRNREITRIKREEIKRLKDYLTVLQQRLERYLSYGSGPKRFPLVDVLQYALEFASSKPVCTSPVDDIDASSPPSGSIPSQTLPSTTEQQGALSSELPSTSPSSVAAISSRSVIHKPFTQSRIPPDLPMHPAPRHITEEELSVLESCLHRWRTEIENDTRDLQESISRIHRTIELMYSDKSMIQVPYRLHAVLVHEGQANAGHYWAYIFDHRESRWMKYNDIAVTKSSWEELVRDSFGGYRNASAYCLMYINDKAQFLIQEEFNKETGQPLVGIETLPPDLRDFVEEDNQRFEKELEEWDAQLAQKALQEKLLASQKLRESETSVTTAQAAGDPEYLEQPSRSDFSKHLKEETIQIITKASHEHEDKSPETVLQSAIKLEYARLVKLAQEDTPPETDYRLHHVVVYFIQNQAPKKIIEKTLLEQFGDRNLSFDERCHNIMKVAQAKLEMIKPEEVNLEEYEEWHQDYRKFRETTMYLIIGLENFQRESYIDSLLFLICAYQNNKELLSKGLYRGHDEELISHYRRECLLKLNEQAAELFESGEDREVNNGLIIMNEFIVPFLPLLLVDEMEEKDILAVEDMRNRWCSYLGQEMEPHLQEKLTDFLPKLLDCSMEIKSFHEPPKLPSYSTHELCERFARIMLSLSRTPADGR
Method in brief: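 Steps: compound dilutions (top 25 μM, 3-fold, 10 points) were preincubated 30 min with 75 pM USP25-His6; 25 nM Ub-Rh110 substrate was added under initial-velocity conditions; after 45 min at room temperature, 10 mM citric acid stopped the reaction before fluorescence reading.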

| SMILES | IC50 [nM] |
| --- | --- |
| Cc1ccc2c(N)c(C(=O)N[C@H]3COc4cc(N5CC6CCC(C5)N6)nc(F)c4C3)sc2n1 [Example 17, N-((3R)-7-(3,8-Diazabicyclo[3.2.1]octan-3-yl)-5-fluoro-3,4-dihydro-2H-pyrano[3,2-c]pyridin-3-yl)-3-amino-6-methylthieno[2,3-b]pyridine-2-carboxamide] | 50 to 200 |
| Cc1ccc2c(N)c(C(=O)N[C@H]3COc4c(cnc(N5CC6CCC(C5)N6)c4F)C3)sc2n1 [Example 18, N-((3R)-7-(3,8-Diazabicyclo[3.2.1]octan-3-yl)-8-fluoro-3,4-dihydro-2H-pyrano[3,2-c]pyridin-3-yl)-3-amino-6-methylthieno[2,3-b]pyridine-2-carboxamide] | 50 to 200 |
| Cc1ccc2c(N)c(C(=O)N[C@H]3COc4nc(N5CCNCC5)ccc4C3)sc2n1 [Example 19, (R)-3-Amino-6-methyl-N-(7-(piperazin-1-yl)-3,4-dihydro-2H-pyrano[2,3-b]pyridin-3-yl)thieno[2,3-b]pyridine-2-carboxamide] | 200 to 2000 |
| Cc1ccc2c(N)c(C(=O)N[C@H]3COc4nc(N5CCNCC5)c(F)cc4C3)sc2n1 [Example 20, (R)-3-Amino-N-(6-fluoro-7-(piperazin-1-yl)-3,4-dihydro-2H-pyrano[2,3-b]pyridin-3-yl)-6-methylthieno[2,3-b]pyridine-2-carboxamide] | 200 to 2000 |
| CO[C@H]1CN(c2ccc3c(n2)CC[C@H](NC(=O)c2sc4nc(C)cc(C)c4c2N)C3)C[C@@H]1N [Example 23-3, 3-amino-N-[(6S)-2-[(3S,4S)-3-amino-4-methoxypyrrolidin-1-yl]-5,6,7,8-tetrahydroquinolin-6-yl]-4,6-dimethylthieno[2,3-b]pyridine-2-carboxamide] | > 2000 |
| CO[C@H]1CN(c2ccc3c(n2)CC[C@H](NC(=O)c2sc4nc(C)ccc4c2N)C3)C[C@@H]1N [Example 23-4, 3-amino-N-[(6S)-2-[(3S,4S)-3-amino-4-methoxypyrrolidin-1-yl]-5,6,7,8-tetrahydroquinolin-6-yl]-6-methylthieno[2,3-b]pyridine-2-carboxamide] | > 2000 |
| CO[C@H]1CN(c2ccc3c(n2)CC[C@@H](NC(=O)c2sc4nc(C)ccc4c2N)C3)C[C@@H]1N [Example 23-5, 3-amino-N-[(6R)-2-[(3S,4S)-3-amino-4-methoxypyrrolidin-1-yl]-5,6,7,8-tetrahydroquinolin-6-yl]-6-methylthieno[2,3-b]pyridine-2-carboxamide] | > 2000 |
